Consider two compounds from patent publication US6046169A, “Inhibitors of factor XA” (COR Therapeutics, Inc., priority 1995, dated 2000).

Square brackets hold non-standard residues; d marks the D form. Peptide text beside a SMILES is read from it. * marks the point of attachment. Boc = CC(C)(C)OC(=O)*

The test system of one data set is cuticle bleeding time. Put plainly: Cuticle Bleeding Time model in rabbits. In kind it is in vivo, rabbit. Conditions: 1500 μg/kg+14.85 μg/kg/min. As for the experimental part: In an ancillary study, a Cuticle Bleeding Time model was used to evaluate the effect of test compounds on bleeding time (BT) measurements in rabbits. The standardized protocol involved anesthesia and catheterization of rabbits as previously described in this Example 43. To measure BT, a toe nail was cut 5 mm from the base of the cuticle with a canine nail trimming device. Time until cessation of bleeding was recorded by wicking the blood on to BT blotting paper in 30 second intervals. Test compound was administered as a bolus followed by infusion regimen. Two BT measurements were obtained prior to administration of test compound and three BT measurements accomplished serially after initiation of steady state infusion of test compound. BT measurements were allowed to continue for up to 30 minutes at which time it was stopped with application of silver nitrate. Blood samples were obtained just prior to all BT measurements and processed for measurement of hematological and coagulation parameters.

The conditions of data set [1]: rabbit, in vivo, iv, 2 mg/kg.
Data set [2] concerns coagulation parameters (aPTT, PT, FIB).
Data set [3] concerns rabbit venous thrombosis. Conditions: in vivo.
The nature of the next data set: in vivo. Conditions: rabbit, iv.
The subject of data set [4] is rabbit venous thrombosis. The data set can be described thus: Rabbit deep vein thrombosis model. Conditions: bolus + infusion, doses 200 + 1.98 to 1500 + 14.85 μg/kg + μg/kg/min.

The term half-life denotes the time in which the quantity being followed falls by half. What is called Vd is a proportionality between amount in the body and measured concentration, not a real space. A lower Vd goes with little distribution into tissue.

Consider `CC(C)(C)OC(=O)N[C@H](CCCN=C(N)N)C(=O)NCC(=O)N[C@H](C=O)CCCN=C(N)N` [Boc--D-Arg--Gly--Arg--H, Boc-D-Arg-Gly-Arg-H] (Boc-[dR]-Gly-Arg-aldehyde), for which the “changes in hematological parameters from pre to post administration” value with cuticle bleeding time (cuticle BT experiments) is reported as “no significant changes”. For the same compound, the “increase of cuticle BT from pre-administration baseline” value in the data set on cuticle bleeding time (rabbits, n=4, ±1.26) is 2.14 fold. The “peak plasma concentration by HPLC” value in data set [1] was 3.78 µg/mL. Further, in data set [2] (rabbit, in vivo, iv, 2 mg/kg), the “changes in hematological parameters as compared to saline controls” value is “no significant changes”. The “effects on hematological parameters as compared to saline controls” value in the data set with rabbit venous thrombosis [3] was “no significant effects”. The half-life in the data set “in vivo” was determined as 1.18 h. In the data set “in vivo” (2 mg/kg), this compound yielded a Vd of 0.118 L/kg.
With `CC(C)(C)OC(=O)N[C@H](CCCNC(=N)N)C(=O)NCC(=O)N[C@H](C=O)CCCNC(=N)N` [Boc--D-Arg--Gly--Arg--H, Boc-D-Arg-Gly-Arg-H] (Boc-[dR]-Gly-Arg-aldehyde), in data set [2] (rabbits, I.V. bolus 2.0 mg/kg), the FIB prolongation is on record as 1.07 fold, the PT prolongation is 1.15 fold, the “aPTT prolongation as compared to pretreatment values” came out at 2.45 fold and the anticoagulative effect entry was “plasma concentration-dependent anticoagulative effect”. In the data set on rabbit venous thrombosis [4], the “antithrombotic efficacy in the rabbit venous thrombosis model” value is on record as “antithrombotic efficacy at the higher doses evaluated”.
